Measured values published in ChEMBL document CHEMBL4130624, “Optimization of 1,4-Oxazine β-Secretase 1 (BACE1) Inhibitors Toward a Clinical Candidate” (J Med Chem, 2018).
Values after ≈ are worked out from the molar mass of the structure shown. Active and inactive are the calls of the source. The calls are words filed in the database; no cut-off is given here.

How the values were obtained:
[1] = Drug metabolism in human liver microsomes at 1 uM after 15 mins in presence of NADPH by HPLC-MS/MS analysis; assay type: ADME, microsome; details: read-out: Drug metabolism
Rattus norvegicus [2] = test: Toxicity in female Sprague-Dawley rat assessed as increase in formation of foamy macrophages in lungs at 75 mg/kg/day, po administered via gavage for 1 month; assay type: organism-based; details: in vivo
Beta-secretase 1 = Beta-secretase 1 (Homo sapiens, UniProt P56817); test: Inhibition of BACE1 (1 to 454 residues) (unknown origin) using APP derived polypeptide harboring Lys-Met/Asn-Leu mutation as substrate by FRET assay
Sequence of Beta-secretase 1 (P56817 whole entry, the tested form may be a part): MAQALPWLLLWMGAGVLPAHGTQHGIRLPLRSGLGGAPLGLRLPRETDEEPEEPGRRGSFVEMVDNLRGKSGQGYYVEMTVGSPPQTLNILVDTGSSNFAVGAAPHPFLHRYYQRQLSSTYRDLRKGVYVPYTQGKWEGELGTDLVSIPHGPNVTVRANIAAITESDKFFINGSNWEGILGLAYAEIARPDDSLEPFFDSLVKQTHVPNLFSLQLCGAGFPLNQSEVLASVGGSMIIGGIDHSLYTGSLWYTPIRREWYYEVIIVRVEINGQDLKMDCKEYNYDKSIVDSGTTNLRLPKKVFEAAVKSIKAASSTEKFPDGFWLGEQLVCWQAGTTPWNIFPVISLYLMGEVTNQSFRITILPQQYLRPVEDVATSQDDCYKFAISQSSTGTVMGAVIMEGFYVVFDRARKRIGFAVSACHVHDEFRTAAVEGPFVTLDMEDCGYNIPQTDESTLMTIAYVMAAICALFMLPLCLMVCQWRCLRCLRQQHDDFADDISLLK

[3] = Ratio of drug level in kidney to plasma of Sprague-Dawley rat at 10 mg/kg, po; assay type: ADME, organism-based
[4] = Fraction unbound in dog plasma at 5 uM after 4.5 hrs by HPLC-MS/MS method based rapid equilibrium dialysis; assay type: ADME, cell-free, Canis lupus familiaris
Cytochrome P450 3A4 = Cytochrome P450 3A4 (Homo sapiens, UniProt P08684); test: Time dependent inhibition of recombinant human CYP3A4 by fluorescence-based assay; assay type: ADME; details: recombinant enzyme
Sequence of Cytochrome P450 3A4 (P08684 whole entry): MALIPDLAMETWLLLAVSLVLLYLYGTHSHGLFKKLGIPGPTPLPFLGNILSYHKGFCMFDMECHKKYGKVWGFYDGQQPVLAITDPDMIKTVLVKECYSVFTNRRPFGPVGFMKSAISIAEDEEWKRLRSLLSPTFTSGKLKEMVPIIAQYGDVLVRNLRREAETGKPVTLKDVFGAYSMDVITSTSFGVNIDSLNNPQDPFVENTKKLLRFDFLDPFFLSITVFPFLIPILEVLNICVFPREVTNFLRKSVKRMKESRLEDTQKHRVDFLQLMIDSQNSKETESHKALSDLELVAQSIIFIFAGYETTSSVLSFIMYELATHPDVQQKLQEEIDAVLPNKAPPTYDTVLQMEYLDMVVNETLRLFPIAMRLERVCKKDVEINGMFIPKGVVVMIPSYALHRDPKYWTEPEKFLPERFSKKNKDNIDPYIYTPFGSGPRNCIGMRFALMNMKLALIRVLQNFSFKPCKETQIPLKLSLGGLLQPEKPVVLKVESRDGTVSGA

Cavia porcellus [5] = test: Cardiotoxicity in anesthetized guinea pigs assessed as QTcB prolongation at plasma concentration of 11500 ng/ml dosed up to 10 mg/kg, iv administered over a period of 5 min at 15 min interval by ECG analysis (reference value: 7%); assay type: toxicity, organism-based; details: guinea pig, in vivo
[6] = AUC (0 to 24 hrs) in male Beagle dog at 70 mg/kg, po measured after 1 month repeated dosing by LC-MS/MS analysis; details: in vivo
[7] = Half life in Sprague-Dawley rat at 2.5 mg/kg, iv administered as bolus dose by LC-MS/MS analysis; assay type: ADME, organism-based; details: in vivo
Canis familiaris [8] = test: Antialzheimer activity in po dosed Beagle dog assessed as reduction in CSF amyloid beta (1 to 42) levels measured after 49 hrs post dose by MesoScale electrochemiluminescence; details: Canis lupus familiaris
[9] = Tmax in Beagle dog at 10 mg/kg, po administered as bolus dose by LC-MS/MS analysis; assay type: ADME, organism-based, Canis lupus familiaris; details: in vivo
[10] = Volume of distribution at steady state in Swiss mouse at 2.5 mg/kg, iv administered as bolus dose by LC-MS/MS analysis; assay type: ADME, organism-based; details: in vivo, read-out: Vdss
[11] = AUC (0 to infinity) in Beagle dog at 10 mg/kg, po administered as bolus dose by LC-MS/MS analysis; assay type: ADME, organism-based, Canis lupus familiaris; set-up: dose 10 mg/kg, time infinity, route oral; details: in vivo
Cavia porcellus [12] = test: Cardiotoxicity in anesthetized guinea pigs assessed as drug level causing QTcB prolongation dosed up to 10 mg/kg, iv administered over a period of 5 min at 15 min interval by ECG analysis; assay type: toxicity, organism-based; details: guinea pig, in vivo
THP-1 = test: Induction of phospholipidosis in human THP1 cells at 21 uM after […] by ethidiumbromide-based fluorescence assay relative to control; assay type: cell-based; details: thp-1, 21 µM
[13] = Toxicity in Sprague-Dawley rat administered daily via oral gavage for 1 month; assay type: organism-based; details: in vivo
Salmonella typhimurium = test: Mutagenicity in Salmonella typhimurium TA98 up to 500 ug/ml in absence of rat liver S9 fraction by Ames 2 assay; assay type: toxicity, organism-based; details: salmonella enterica subsp. enterica serovar typhimurium
hERG (KCNH2) = hERG (KCNH2) (Homo sapiens, UniProt Q12809); test: Inhibition of human ERG expressed in HEK293 cells assessed as reduction in outward potassium current at 3 uM at holding potential was -80 mV after 5 mins by patch clamp assay; assay type: cell-based; details: HEK293 cells that express hERG
Sequence of hERG (KCNH2) (Q12809 whole entry): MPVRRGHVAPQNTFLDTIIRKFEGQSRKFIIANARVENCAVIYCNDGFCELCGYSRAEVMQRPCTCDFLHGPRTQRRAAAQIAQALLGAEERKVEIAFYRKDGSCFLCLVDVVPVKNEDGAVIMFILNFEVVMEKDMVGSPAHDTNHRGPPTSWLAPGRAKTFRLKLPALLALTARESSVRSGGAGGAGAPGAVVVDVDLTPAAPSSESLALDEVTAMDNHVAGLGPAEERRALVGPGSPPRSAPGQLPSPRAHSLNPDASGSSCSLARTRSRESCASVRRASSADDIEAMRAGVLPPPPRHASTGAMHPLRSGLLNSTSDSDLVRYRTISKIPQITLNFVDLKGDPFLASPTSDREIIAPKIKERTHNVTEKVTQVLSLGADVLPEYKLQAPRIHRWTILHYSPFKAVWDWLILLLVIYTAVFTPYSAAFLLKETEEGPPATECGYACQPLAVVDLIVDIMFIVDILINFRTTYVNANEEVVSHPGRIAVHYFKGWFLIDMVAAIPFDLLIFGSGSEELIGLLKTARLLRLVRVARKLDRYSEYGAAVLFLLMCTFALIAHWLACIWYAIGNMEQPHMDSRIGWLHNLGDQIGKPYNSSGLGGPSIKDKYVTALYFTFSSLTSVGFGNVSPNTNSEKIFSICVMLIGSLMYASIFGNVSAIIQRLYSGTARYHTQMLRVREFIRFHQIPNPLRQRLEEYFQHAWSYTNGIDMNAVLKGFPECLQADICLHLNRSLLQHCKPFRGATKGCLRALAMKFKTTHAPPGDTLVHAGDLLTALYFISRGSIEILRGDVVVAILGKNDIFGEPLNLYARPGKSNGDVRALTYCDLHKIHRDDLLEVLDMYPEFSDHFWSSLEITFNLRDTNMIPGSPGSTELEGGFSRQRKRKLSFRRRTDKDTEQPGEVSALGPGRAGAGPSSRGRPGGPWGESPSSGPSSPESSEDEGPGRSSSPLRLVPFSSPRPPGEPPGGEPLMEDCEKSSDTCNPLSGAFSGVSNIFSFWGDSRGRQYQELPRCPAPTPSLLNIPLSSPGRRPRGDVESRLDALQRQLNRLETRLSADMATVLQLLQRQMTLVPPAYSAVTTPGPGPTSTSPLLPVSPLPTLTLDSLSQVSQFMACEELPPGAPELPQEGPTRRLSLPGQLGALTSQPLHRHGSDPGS

[14] = Cmax in male Sprague-Dawley rat at 75 mg/kg, po measured after 1 month repeated dosing by LC-MS/MS analysis; assay type: ADME, organism-based; set-up: dose 75 mg/kg, route oral; details: in vivo
Rattus norvegicus [15] = test: Toxicity in Sprague-Dawley rat assessed as phospholipidosis at 225 mg/kg/day, po administered via gavage for 1 month followed by 1 month recovery period; assay type: organism-based; details: in vivo
Rattus norvegicus [16] = test: Toxicity in Sprague-Dawley rat assessed as effect on food consumption at 225 mg/kg/day, po administered via gavage for 1 month; assay type: organism-based; details: in vivo
Cytochrome P450 2C8 = Cytochrome P450 2C8 (Homo sapiens, UniProt P10632); test: Reversible inhibition of recombinant human CYP2C8 by fluorescence-based assay; assay type: ADME
Sequence of Cytochrome P450 2C8 (P10632 whole entry): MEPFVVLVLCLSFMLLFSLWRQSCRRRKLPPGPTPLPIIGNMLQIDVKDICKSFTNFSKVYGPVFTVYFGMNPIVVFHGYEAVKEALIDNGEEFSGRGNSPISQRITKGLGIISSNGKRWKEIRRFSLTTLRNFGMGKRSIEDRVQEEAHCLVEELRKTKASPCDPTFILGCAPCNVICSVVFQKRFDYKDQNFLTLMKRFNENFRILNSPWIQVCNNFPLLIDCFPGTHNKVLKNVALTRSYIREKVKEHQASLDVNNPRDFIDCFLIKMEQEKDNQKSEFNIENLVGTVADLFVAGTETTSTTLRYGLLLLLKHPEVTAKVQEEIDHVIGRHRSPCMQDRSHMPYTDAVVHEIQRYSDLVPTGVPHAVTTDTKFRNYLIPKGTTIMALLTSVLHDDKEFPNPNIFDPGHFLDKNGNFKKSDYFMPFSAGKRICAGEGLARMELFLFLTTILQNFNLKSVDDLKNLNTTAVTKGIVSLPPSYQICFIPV

[17] = Tmax in Swiss mouse at 10 mg/kg, po administered as bolus dose by LC-MS/MS analysis; assay type: ADME, organism-based; details: in vivo
[18] = Clearance in Swiss mouse at 2.5 mg/kg, iv administered as bolus dose by LC-MS/MS analysis; assay type: ADME, organism-based; details: in vivo
[19] = Ratio of fEC50 for antialzheimer activity in po dosed Beagle dog assessed as reduction in amyloid beta (1 to 40) levels to Inhibition of BACE1 (1 to 454 residues) (unknown origin); assay type: functional
Canis familiaris [20] = test: Half life in Beagle dog at 1 mg/kg, iv administered as bolus dose by LC-MS/MS analysis; assay type: ADME, organism-based, Canis lupus familiaris; details: in vivo
[21] = Safety index, ratio of NOAEL for cardiotoxicity in anesthetized guinea pigs assessed as total drug level causing QTcB prolongation dosed up to 10 mg/kg, iv administered over a period of 5 min at 15 mins interval by ECG analysis to EC50 for Antialzheimer activity in po dosed Beagle dog assessed as reduction in amyloid beta (1 to 40) levels measured after 1 hr post dose by ELISA; assay type: toxicity, organism-based; details: guinea pig, in vivo
[22] = Oral bioavailability in Sprague-Dawley rat at 10 mg/kg administered as bolus dose by LC-MS/MS analysis; assay type: ADME, organism-based; details: in vivo
Rattus norvegicus [23] = test: Toxicity in Sprague-Dawley rat assessed as induction of tissue damage at 225 mg/kg/day, po administered via gavage for 1 month; assay type: organism-based; details: in vivo
Canis familiaris [24] = test: Toxicity in Beagle dog assessed as drug tolerability up to 20 mg/kg, po; assay type: organism-based, Canis lupus familiaris; details: in vivo
[25] = Cmax in Swiss mouse at 10 mg/kg, po administered as bolus dose by LC-MS/MS analysis; assay type: ADME, organism-based; set-up: dose 10 mg/kg, route oral; details: in vivo
[26] = Ratio of drug level in liver to plasma of Sprague-Dawley rat at 10 mg/kg, po; assay type: ADME, organism-based
TK6 = test: Genotoxicity in human TK6 cells at 80 ug/ml after 24 hrs in absence of rat liver S9 fraction by micronucleus assay; assay type: toxicity, cell-based; details: tk6, 24 h
Cytochrome P450 2C19 = Cytochrome P450 2C19 (Homo sapiens, UniProt P33261); test: Reversible inhibition of recombinant human CYP2C19 by fluorescence-based assay; assay type: ADME
Sequence of Cytochrome P450 2C19 (P33261 whole entry): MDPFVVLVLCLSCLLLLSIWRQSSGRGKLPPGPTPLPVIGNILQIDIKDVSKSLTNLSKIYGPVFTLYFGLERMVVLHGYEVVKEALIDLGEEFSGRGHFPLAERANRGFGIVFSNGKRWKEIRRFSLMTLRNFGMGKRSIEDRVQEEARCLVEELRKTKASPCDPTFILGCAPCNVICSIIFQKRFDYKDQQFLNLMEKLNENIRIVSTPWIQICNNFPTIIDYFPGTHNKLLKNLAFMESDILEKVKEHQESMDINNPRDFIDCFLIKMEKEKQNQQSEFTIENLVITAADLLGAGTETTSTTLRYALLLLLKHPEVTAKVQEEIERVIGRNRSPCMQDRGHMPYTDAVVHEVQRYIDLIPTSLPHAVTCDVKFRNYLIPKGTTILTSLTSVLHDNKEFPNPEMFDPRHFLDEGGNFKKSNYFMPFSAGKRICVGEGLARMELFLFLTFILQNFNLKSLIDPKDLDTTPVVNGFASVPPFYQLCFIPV

Canis familiaris [27] = test: Antialzheimer activity in po dosed Beagle dog assessed as reduction in amyloid beta (1 to 40) levels measured after 1 hr post dose by ELISA; assay type: functional, organism-based, Canis lupus familiaris
[28] = AUC (0 to infinity) in Swiss mouse at 10 mg/kg, po administered as bolus dose by LC-MS/MS analysis; assay type: ADME, organism-based; set-up: dose 10 mg/kg, time infinity, route oral; details: in vivo
Rattus norvegicus [29] = test: Toxicity in Sprague-Dawley rat assessed as induction of pigmentation at 225 mg/kg/day, po administered via gavage for 1 month; assay type: organism-based; details: in vivo
[30] = Fraction unbound in rat brain at 5 uM after 5 hrs by HPLC-MS/MS method based rapid equilibrium dialysis; assay type: ADME, tissue-based
[31] = Half life in Swiss mouse at 2.5 mg/kg, iv administered as bolus dose by LC-MS/MS analysis; assay type: ADME, organism-based; details: in vivo
[32] = biological target: Kappa-type opioid receptor (Cavia porcellus) (UniProt P41144); test: Inhibition of Dunkin Hartley guinea pig kappa-type opioid receptor at 10 uM after 5 mins
Sequence of Kappa-type opioid receptor (Cavia porcellus) (P41144 whole entry): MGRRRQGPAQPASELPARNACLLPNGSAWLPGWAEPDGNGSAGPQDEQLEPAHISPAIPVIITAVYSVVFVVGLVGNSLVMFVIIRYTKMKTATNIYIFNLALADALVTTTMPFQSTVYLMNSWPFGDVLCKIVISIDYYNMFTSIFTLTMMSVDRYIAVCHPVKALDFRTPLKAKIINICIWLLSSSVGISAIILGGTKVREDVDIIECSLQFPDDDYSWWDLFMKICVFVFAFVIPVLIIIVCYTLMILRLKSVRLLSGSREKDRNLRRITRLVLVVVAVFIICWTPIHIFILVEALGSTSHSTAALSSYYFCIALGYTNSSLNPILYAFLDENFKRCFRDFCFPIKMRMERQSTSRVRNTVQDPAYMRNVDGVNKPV

C[C@]1(c2cc(NC(=O)c3ccc(C#N)cn3)ccc2F)N=C(N)CO[C@H]1C(F)(F)F
metabolised at 0.25 h, 1 µM [1]: 2% | Activity (Rattus norvegicus [2]): Toxic | IC50 (Beta-secretase 1): 0.0222 µM | Kp [3]: 19 | fraction unbound at 4.5 h, 5 µM [4]: 0.26 | TDI (Cytochrome P450 3A4): Not Active | Activity (Cavia porcellus [5]): 9% | AUC at 24 h [6]: 26300 ng·h/mL | half-life [7]: 3.9 h | Activity (Canis familiaris [8]): Active | Tmax [9]: 2 h | Vd [10]: 7.6 L/kg | AUC(0-inf) [11]: 15400 ng·h/mL | LOAEL (Cavia porcellus [12]): 11500 ng/mL | NOAEL (Cavia porcellus [12]): 5235 ng/mL | fLOAEL (Cavia porcellus [12]): 10.1 µM | fNOAEL (Cavia porcellus [12]): 4.6 µM | fold change (FC) (THP-1): 2 | NOAEL at 1 month [13]: 75 mg/kg | Activity (Salmonella typhimurium): Non-Toxic | inhibition at 5 min, 3 µM (hERG (KCNH2)): 22% | Cmax at 1 month [14]: 1490 ng/mL | Activity (Rattus norvegicus [15]): Non-Toxic | Activity (Rattus norvegicus [16]): Non-Toxic | IC50 (Cytochrome P450 2C8): > 30 µM | Tmax [17]: 1 h | clearance [18]: 69 mL/min/kg | Ratio [19]: 3 | t1/2 (Canis familiaris [20]): 12 h | selectivity ratio [21]: 50 | bioavailability [22]: 36% | Activity (Rattus norvegicus [23]): Non-Toxic | Activity (Canis familiaris [24]): Non-Toxic | Cmax [25]: 333 nM | Kp [26]: 31 | Activity (TK6): Non-Toxic | IC50 (Cytochrome P450 2C19): > 30 µM | fEC50 (Canis familiaris [27]): 0.065 µM | Activity (Canis familiaris [27]; Canis lupus familiaris): Dose-dependent effect | EC50 (Canis familiaris [27]; Canis lupus familiaris, Beagle, 1 h): 0.105 µg/mL (≈ 0.249 µM) | AUC(0-inf) [28]: 1330 ng·h/mL | Activity (Rattus norvegicus [29]): Non-Toxic | fraction unbound at 5 h, 5 µM [30]: 0.03 | half-life [31]: 1.4 h | inhibition [32]: 76%
